Columns and labels:
[1] = target: CKIδ wild type (Homo sapiens, UniProt P48730); assay: CK1δ kinase assay (Kinase-Glo); format: biochemical; details: 10 μM ATP, 2 nM CKIδ, 85 min at 25° C.; read-out: CK1 δ IC50
Experimental: (§1) The CK1δ kinase assay was performed in a 40 μl final volume in buffer containing 50 mM Tris, pH 7.5, 10 mM MgCl2, 1 mM dithiothreitol, 100 μg/mL BSA with 10 μM ATP, 2 nM CKIδ wild type, and 42 μM peptide substrate PLSRTLp[…] (Flotow et al., 1990) in the presence of 1 μl of CKIδ inhibitor or 4% DMSO. The reaction was incubated for 85 min at 25° C.; detection was carried out as described for the Kinase-Glo Assay (Promega). Luminescent output was measured on the Perkin Elmer Envision plate reader (PerkinElmer, Waltham, Mass.).

[2] = target: CKI ε wild type (Homo sapiens, UniProt P49674); assay: CK1ε kinase assay (Kinase-Glo); format: biochemical; details: 10 μM ATP, 2.5 nM CKI ε, 70 min at 25° C.; read-out: CK1 ε:IC50
CKI ε wild type, sequence (P49674 whole entry): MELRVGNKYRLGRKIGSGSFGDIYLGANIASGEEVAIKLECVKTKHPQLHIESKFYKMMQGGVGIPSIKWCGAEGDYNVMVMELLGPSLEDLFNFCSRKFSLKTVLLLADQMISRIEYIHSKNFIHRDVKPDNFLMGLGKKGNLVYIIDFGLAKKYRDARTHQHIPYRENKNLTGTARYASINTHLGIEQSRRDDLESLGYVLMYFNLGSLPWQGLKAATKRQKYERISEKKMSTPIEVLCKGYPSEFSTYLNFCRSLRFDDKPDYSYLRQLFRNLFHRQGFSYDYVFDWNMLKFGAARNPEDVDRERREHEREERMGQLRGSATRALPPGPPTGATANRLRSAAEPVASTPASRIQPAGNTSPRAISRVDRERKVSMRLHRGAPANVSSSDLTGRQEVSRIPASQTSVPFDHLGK
Experimental: as §1, with “The CK1ε” for “The CK1δ”, “a 40-μl” for “a 40 μl”, “ATP, 2.5” for “ATP, 2”, “nM CKI ε” for “nM CKIδ”, “of CKI ε” for “of CKIδ”, “for 70” for “for 85”

[3] = target: T1, human CK1δ (Cos 7 cells cotransfected with mouse Per3-GFP) (Homo sapiens, UniProt P48730); assay: CK1 WCA HCS nuclear translocation assay (CK1δ); format: cell-based; details: inhibition of mPer3-GFP translocation to the nucleus, overnight exposure, read-out: CK1 δ WCA EC50
T1 construct: His tag of the vector pcDNA4/hisA (only the vector name is printed); expressed in transfected cells; host or cells: Cos 7 cells
T1 sequence (P48730 whole entry): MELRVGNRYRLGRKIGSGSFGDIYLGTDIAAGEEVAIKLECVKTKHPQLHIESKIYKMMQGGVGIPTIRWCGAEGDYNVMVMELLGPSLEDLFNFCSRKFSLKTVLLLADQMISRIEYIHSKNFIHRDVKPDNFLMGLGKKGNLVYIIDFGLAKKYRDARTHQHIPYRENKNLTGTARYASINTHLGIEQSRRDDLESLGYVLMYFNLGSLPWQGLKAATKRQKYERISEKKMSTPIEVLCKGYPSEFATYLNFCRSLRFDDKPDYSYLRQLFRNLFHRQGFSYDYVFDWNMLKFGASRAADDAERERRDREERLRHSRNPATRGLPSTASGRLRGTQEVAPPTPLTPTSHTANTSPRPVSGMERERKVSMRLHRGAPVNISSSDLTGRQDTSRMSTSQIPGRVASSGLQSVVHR
Experimental: (§2) CK1 WCA HCS Nuclear Translocation Assay.
(§3) Cos 7 cells were maintained at 37° C. in 5% CO2 in Dulbecco's Modified Eagle Medium (Gibco 11995) supplemented with 10% fetal bovine serum. Log-phase cells were dislodged with 5 min treatment of TrypLE Express (Gibco 12605) and viable cell count was determined with Cedex cell counter. Cells were diluted in DMEM medium to a density of 1.5e5 viable cells/mL in ⅔ of the final volume of final transfected cell mix. Cells were cotransfected with two plasmid DNAs, mouse Per3-GFP (green fluorescent protein) in pd2EGFP-N1 vector and human CKI in pcDNA4/hisA vector (for CK1Epsilon at a ratio of 1:5 respectively; for CK1δ at a ratio of 1:11 respectively), using Lipofectamine 2000 reagent (Invitrogen) according to the manufacturer's recommendations. The transfection mix contained approximately 0.83 μg/mL of DNA and 6 μL/mL of Lipofectamine 2000, in a total of ⅓ of the final transfection volume in Opti-MEM I medium (Invitrogen). After 20 min at rt, the cell mix was combined with the DNA transfection mix, per manufacturer instructions. 50 μL of the transfected cell suspension was dispensed per well by multidrop dispenser into Greiner 384-well Cellcoat (PDL) plates (Greiner #781946).
(§4) Compounds were solubilized in 100% DMSO, diluted with Opti-MEM I to a 4× concentration before addition to plated cells. After overnight exposure at 37° C. in a CO2 incubator, cells were fixed by the addition of 12% paraformaldehyde (Electron Microscopy Sciences, Hatfield, Pa.) in phosphate-buffered saline (PBS) with 20% sucrose to a final concentration of 4%, and then the cells were incubated for 30 min at rt. Fixative was removed, and cells were washed with PBS and then stained with 0.4 μg/ml Hoechst dye (Invitrogen) in blocking buffer containing 4% goat serum (Vector Labs s-1000) and 0.1% TritonX (Sigma T8787) for 1 h. Cells were washed again with PBS and stored at 4° C. in PBS or scanned immediately with the Cellomics ArrayScan VTI. CKIδ dependent nuclear localization of the GFP-tagged mPer3 protein was quantitated using the Cellomics ArrayScan VTI system utilizing the Cytoplasm to Nucleus translocation bioapplication to calculate the Nuclear-Cytoplasmic Intensity difference. Inhibitors of CK1 δ/ε were tested across a dose response curve to evaluate their ability to inhibit mPer3-GFP translocation to the nucleus. Cells with a total intensity of mPER3:GFP expression equal to or greater than 20,000 are included in analysis.

[4] = target: T2, human CK1Epsilon (Cos 7 cells cotransfected with mouse Per3-GFP) (Homo sapiens, UniProt P49674); assay: CK1 WCA HCS nuclear translocation assay (CK1ε); format: cell-based; details: inhibition of mPer3-GFP translocation to the nucleus, overnight exposure, read-out: CK1 ε WCA EC50
T2 construct: His tag of the vector pcDNA4/hisA (only the vector name is printed); expressed in transfected cells; host or cells: Cos 7 cells
T2 sequence (P49674 whole entry): as the sequence (P49674 whole entry) above
Experimental: as §2, §3, §4

CKIδ wild type, sequence (P48730 whole entry): as the sequence (P48730 whole entry) above

| SMILES | IC50 [1] | IC50 [2] | EC50 [3] | EC50 [4] |
| --- | --- | --- | --- | --- |
| Cn1cc(-c2ccnc3c2C(=O)OC3)c(-c2ccc(F)cc2)n1 [Example 1, 4-(3-(4-fluorophenyl)-1-methyl-1H-pyrazol-4-yl)furo[3,4-b]pyridin-5(7H)-one] | 7.91 nM | 26.9 nM | 59.8 nM | 355 nM |
| Cn1cc(-c2ccnc3c2C(=O)NC3)c(-c2ccc(F)cc2)n1 [Example 4, 4-[3-(4-fluorophenyl)-1-methyl-1H-pyrazol-4-yl]-6,7-dihydro-5H-pyrrolo[3,4-b]pyridin-5-one] | 13.9 nM | 72.7 nM | 122 nM | 684 nM |
| COCC(=O)N1Cc2nccc(-c3cn(C)nc3-c3ccc(F)cc3)c2C1 [Example 17, 4-[3-(4-fluorophenyl)-1-methyl-1H-pyrazol-4-yl]-6-(methoxyacetyl)-6,7-dihydro-5H-pyrrolo[3,4-b]pyridine] | – | – | 47.5 nM | 210 nM |
| CC(C)C(=O)N1Cc2nccc(-c3cn(C)nc3-c3ccc(F)cc3)c2C1 [Example 18, 4-[3-(4-fluorophenyl)-1-methyl-1H-pyrazol-4-yl]-6-isobutyryl-6,7-dihydro-5H-pyrrolo[3,4-b]pyridine] | – | – | 39.5 nM | 195 nM |
| CC1COc2c(-c3cn(C)nc3-c3ccc(F)cc3)ccnc2CN1 (stereo not drawn) [Example 9, 9-[3-(4-fluorophenyl)-1-methyl-1H-pyrazol-4-yl]-3-methyl-2,3,4,5-tetrahydropyrido[2,3-f][1,4]oxazepine] | – | – | 199 nM | 834 nM |
| CCN1Cc2nccc(-c3cn(C)nc3-c3ccc(F)cc3)c2C1=O [Example 34, 6-ethyl-4-[3-(4-fluorophenyl)-1-methyl-1H-pyrazol-4-yl]-6,7-dihydro-5H-pyrrolo[3,4-b]pyridin-5-one] | 12.4 nM | 61.5 nM | 99 nM | 468 nM |

More lines, in order of falling EC50 [3], values ahead:

| IC50 [1] | IC50 [2] | EC50 [3] | EC50 [4] | SMILES |
| --- | --- | --- | --- | --- |
| 6.01 nM | 27.6 nM | 39.2 nM | 291 nM | Cn1cc(-c2ccnc3c2OCCNC3)c(-c2ccc(F)cc2)n1 [Example 7, 9-[3-(4-fluorophenyl)-1-methyl-1H-pyrazol-4-yl]-2,3,4,5-tetrahydropyrido[2,3-f][1,4]oxazepine] |
| – | – | 18.3 nM | 82.3 nM | Cn1cc(-c2ccnc3c2CN(C(=O)C2CC2)C3)c(-c2ccc(F)cc2)n1 [Example 21, 6-(cyclopropylcarbonyl)-4-[3-(4-fluorophenyl)-1-methyl-1H-pyrazol-4-yl]-6,7-dihydro-5H-pyrrolo[3,4-b]pyridine] |
| – | – | 16.2 nM | 124 nM | CCC(=O)N1Cc2nccc(-c3cn(C)nc3-c3ccc(F)cc3)c2C1 [Example 13, 4-[3-(4-fluorophenyl)-1-methyl-1H-pyrazol-4-yl]-6-propionyl-6,7-dihydro-5H-pyrrolo[3,4-b]pyridine] |
| 3.11 nM | 10.8 nM | 13.5 nM | 62.4 nM | Cn1cc(-c2ccnc3c2CN(S(C)(=O)=O)C3)c(-c2ccc(F)cc2)n1 [Example 10, 4-[3-(4-fluorophenyl)-1-methyl-1H-pyrazol-4-yl]-6-(methylsulfonyl)-6,7-dihydro-5H-pyrrolo[3,4-b]pyridine] |
